Test results: patent publication US20230255966A1, “A COMBINATION OF A CBP/P300 BROMODOMAIN INHIBITOR AND AN EGFR INHIBITOR FOR USE IN TREATING EGFR-MUTANT NSCLC” (TOLREMO THERAPEUTICS AG, priority 2020, published 2023)
Where two headings read alike, the source gives them in different places.

Assays:
HCC827 cells [1] = assay: Cell counting by nuclear fluorescent staining (Hoechst33342); type: cell-based; conditions: for Effect on cell proliferation as single agent: absence of EGFR inhibitor (FIG. 3 left); for Anti-proliferative activity / re-growth in presence of Gefitinib: in presence of 300 nM Gefitinib (FIG. 3)
Experimental: Several plates were seeded, as for each time point of cell counting one plate was fixed and stained for analysis. […] Cell cultivation was continued until time of fixation and analysis for each plate. For extended time-points, medium and drugs were replenished twice weekly.
At the given time plates were washed 3 times with PBS and cells fixed with 80 μl 4% PFA for 10 min, RT. After 3 wash steps with PBS cells were stained with 10 μg/ml Hoechst33342 (Thermo Scientific H12492) in 100 μl PBS for 2 h, RT, dark. After 3× PBS washing-steps, Hoechst33342 signals were acquired on in an automated imaging mode using a Zeiss Apotome with motorized X/Y stage and a 5× objective. Image analysis and determination of Hoechst33342 spots (nuclei) was done using ImageJ. Number of nuclei was plotted as function of time using GraphPad Prism.

NCI-H1975 cells [2] = assay: Gene expression analysis (qPCR of ALPP and HOPX); type: cell-based; conditions: 24 h; for EGFR inhibitor induced gene expression (ALPP, HOPX): NCI-H1975, 1 μM CBP/p300 inhibitor in presence of 20 nM osimertinib
Experimental: (§1) Equal amount of cDNA was then subjected to qPCR analysis using the Kapa SYBR fast kit (KK4611) in a 384 well format in a Roche Light Cycler 480. Gene expression of genes was evaluated by subtraction of housekeeping gene CT-values (b-Actin) from CT of the genes of interest, and by calculating the ΔΔCT by subtracting the DMSO control value from sample of interest to finally calculate fold change differences of treated versus control treated sample.
(§2) Data is from 2 independent experiments with qPCRs in duplicate (mean±SEM) (FIG. 1C-D).

HCC827 cells [3] = assay: Gene expression analysis (qPCR of ALPP and HOPX); type: cell-based; conditions: HCC827, 1 μM CBP/p300 inhibitor in presence of Gefitinib, 24 h
Experimental: as §1, §2

HCC827 cells [4] = assay: Label-free determination of cell proliferation (CELIGO); type: cell-based; conditions: for Development of drug resistance / re-growth: HCC827, combined with 100 nM osimertinib; for Development of drug resistance / re-growth / Effect on cell proliferation on their own: 21 days (FIG. 9); for Effect on cell proliferation on their own: HCC827, single agent (1 μM Compound A, 0.2 μM Compound C, 0.2 μM CCS1477, 1 μM FT-6876, 0.2 μM GNE-781)
NCI-H1975 cells [5] = assay: as above; type: cell-based
HCC4006 cells = assay: as above; conditions: for Development of drug resistance / re-growth: HCC4006, combined with 100 nM osimertinib; for Development of drug resistance / re-growth / Effect on cell proliferation on their own: 21 days (FIG. 10); for Effect on cell proliferation on their own: HCC4006, single agent (1 μM Compound A, 0.2 μM Compound C, 0.2 μM CCS1477, 1 μM FT-6876, 0.2 μM GNE-781)
Experimental: 2000 HCC4006 (ATCC; CRL2871) were seeded into 96 well plates (Greiner BioOne 655090) one day prior to drug treatment in RPMI medium containing 10% FCS and 2 mM L-Glutamine. The next day wells were imaged label-free using brightfield imaging on a CELIGO Image Cytometer to determine the initial cell number. Subsequently cells were treated with either DMSO, with single drugs (osimertinib and each of the CBP/p300 bromodomain inhibitors) or drug combinations of 100 nM osimertinib and one CBP/p300 bromodomain inhibitor with drug concentrations given below. Plates were regularly imaged over weeks using brightfield mode (CELIGO Imaging Cytometer) to track cell proliferation in each well over time. Growth medium and treatments were replenished twice weekly. […] Cell numbers were determined using CELIGO software's built-in “direct cell counting” analysis tool in the brightfield mode.

NCI-H1975 xenografts = assay: NCI-H1975 xenograft tumor growth; type: in vivo, NMRI-Nude mice; conditions: 2 mg/kg osimertinib alone
Experimental: Tumor volume was measured using a manual caliper two to three times a week. The tumor volume was calculated using the formula: lager tumor diameter x square of the smaller tumor diameter divided by 2. Based on a linear fit of the mean tumor volumes the slopes of the curves were compared by regression analysis (two-tailed).
The response was determined by comparing tumor volume change at time t to its baseline: % tumor volume change=ΔVolt=100%×((Vt−Vinitial)/Vinitial). The Best Response was the minimum value of ΔVolt for t≥10 d. For each time t, the average of ΔVolt from t=0 to t was also calculated. The BestAvgResponse is defined as the minimum value of this average for t≥10 d. This metric captures a combination of speed, strength and durability of response into a single value. […] Mice that were sacrificed because of an adverse event before they had completed 14 d on trial were removed from the data set.
The response was determined by comparing tumor volume change at time t to its baseline: % tumor volume change=ΔVolt=100%×((Vt−Vinitial)/Vinitial). The Best Response was the minimum value of ΔVolt for t≥6 d. For each time t, the average of ΔVolt from t=0 to t was also calculated. The BestAvgResponse is defined as the minimum value of this average for t≥10 d. This metric captures a combination of speed, strength and durability of response into a single value. […] Mice that were sacrificed because of an adverse event before they had completed 14 d on trial were removed from the data set.

[6] = NCI-H1975, 50 nM osimertinib alone (FIG. 5)

Structure (SMILES): CC(=O)N1C[C@H](c2nc(Nc3ccc4[nH]ncc4c3)cc(-c3cccnc3)n2)CC[C@@H]1C [Compound 00030]
- Effect on cell proliferation as single agent (HCC827 cells [1]): absence of an anti-proliferative effect
- Anti-proliferative activity / re-growth in presence of Gefitinib (HCC827 cells [1]): potentiate the effect of the EGFR inhibitor

Structure (SMILES): CNC(=O)Nc1ccc2c(c1)CC[C@@]21OC(=O)N(CC(=O)N(Cc2ccc(F)cc2)[C@@H](C)C(F)(F)F)C1=O [Compound A-485]
- EGFR inhibitor induced gene expression (ALPP, HOPX) (NCI-H1975 cells [2]): reverse EGFR inhibitor induced gene expression
- EGFR inhibitor induced gene expression (ALPP, HOPX) (HCC827 cells [3]): reverse EGFR inhibitor induced gene expression
- Effect on cell proliferation as single agent (HCC827 cells [1]): affect cell proliferation

Structure (SMILES): COc1cncc(-c2cc(Nc3cccc(F)c3)nc([C@@H]3CC[C@H](C)N(C(C)=O)C3)n2)c1 [Compound A]
- EGFR inhibitor induced gene expression (ALPP, HOPX) (NCI-H1975 cells [2]): reverse EGFR inhibitor induced gene expression
- EGFR inhibitor induced gene expression (ALPP, HOPX) (HCC827 cells [3]): reverse EGFR inhibitor induced gene expression
- Re-growth in long-term cultures (HCC827 cells [4]; HCC827, 300 nM Gefitinib + 1 μM Compound A, >22 days (FIG. 4)): significantly delays or completely prevents re-grow
- Effect on cell numbers on its own (HCC827 cells [4]; HCC827, 1 μM Compound A alone (FIG. 4)): weak/no effect on cell numbers
- Development of drug resistance / re-growth (HCC827 cells [4]): prevent the development of drug resistance
- Re-growth under continuous Gefitinib exposure (HCC827 cells [1]; in combination with 20 nM Gefitinib (FIG. 2A)): Re-growth is inhibited
- Anti-proliferative activity / re-growth in presence of Gefitinib (HCC827 cells [1]): potentiate the effect of the EGFR inhibitor
- Growth long-term (NCI-H1975 cells [5]; NCI-H1975, 50 nM osimertinib with 2.0, 0.5 or 0.125 μM co-treatment (FIG. 5)): delayed
- Effect on cell numbers on their own (NCI-H1975 cells [5]; NCI-H1975, 2 μM single agent (FIG. 5)): no/weak effect on cell numbers

Structure (SMILES): COC(=O)N1c2ccc3c(nc(Cc4ccccc4)n3[C@H]3CCC[C@H](C(=O)O)C3)c2CC[C@@H]1C [FT-6876]
- Development of drug resistance / re-growth (HCC4006 cells): prevent the development of drug resistance
- Effect on cell proliferation on their own (HCC4006 cells): do not affect cell proliferation
- Development of drug resistance / re-growth (HCC827 cells [4]): prevent the development of drug resistance
- Effect on cell proliferation on their own (HCC827 cells [4]): do not affect cell proliferation

Structure (SMILES): CNC(=O)N1CCc2c(c(N3CCCc4cc(-c5cnn(C)c5)c(C(F)F)cc43)nn2C2CCOCC2)C1 [GNE-781]
- Development of drug resistance / re-growth (HCC4006 cells): prevent the development of drug resistance
- Effect on cell proliferation on their own (HCC4006 cells): do not affect cell proliferation
- Development of drug resistance / re-growth (HCC827 cells [4]): prevent the development of drug resistance
- Effect on cell proliferation on their own (HCC827 cells [4]): do not affect cell proliferation

Structure (SMILES): COc1cc2ncnc(Nc3ccc(F)c(Cl)c3)c2cc1OCCCN1CCOCC1 [Gefitinib]
- Cell proliferation, initial (HCC4006 cells; HCC4006, 300 nM Gefitinib alone (FIG. 8)): initially completely blocks cell proliferation
- Re-growth in long-term cultures (HCC4006 cells; HCC4006, 300 nM Gefitinib only (FIG. 8)): HCC4006 cells re-grow if treated with Gefitinib only

Structure (SMILES): O=C1[C@H](Cc2ccc(O)cc2)N2C(=O)CCN(C(=O)NCc3ccccc3)[C@H]2CN1Cc1cccc2ccccc12 [ICG-001]
- EGFR inhibitor induced gene expression (ALPP, HOPX) (NCI-H1975 cells [2]): does not blunt EGFR-induced gene expression
- EGFR inhibitor induced gene expression (ALPP, HOPX) (HCC827 cells [3]): does not blunt EGFR-induced gene expression

Structure (SMILES): COc1ccc(CCc2nc3cc(-c4c(C)noc4C)ccc3n2C[C@H](C)N2CCOCC2)cc1Cl [SGC-CBP30]
- Effect on cell proliferation as single agent (HCC827 cells [1]): do not affect cell proliferation
- Anti-proliferative activity / re-growth in presence of Gefitinib (HCC827 cells [1]): potentiate the effect of the EGFR inhibitor

Structure (SMILES): C=CC(=O)Nc1cc(Nc2nccc(-c3cn(C)c4ccccc34)n2)c(OC)cc1N(C)CCN(C)C [osimertinib]
- ALPP and HOPX gene expression (NCI-H1975 cells [2]; NCI-H1975, EGFR inhibitor (20 nM osimertinib) alone): upregulation of example genes ALPP and HOPX
- Cell proliferation, initial (HCC4006 cells; HCC4006, 100 nM osimertinib alone (FIG. 10)): initially blocks cell proliferation
- Re-growth in long-term cultures (HCC4006 cells; HCC4006, 100 nM osimertinib only (FIG. 10)): HCC4006 cells re-grow if treated with osimertinib only
- Cell proliferation, initial (HCC827 cells [4]): initially blocks cell proliferation
- Re-growth in long-term cultures (HCC827 cells [4]): HCC827 cells re-grow if treated with osimertinib only
- Cell proliferation, initial (NCI-H1975 cells [5]; [6]): initially blocks cell proliferation
- Growth long-term (NCI-H1975 cells [5]; [6]): cells continue growing with a slow rate
- Slope of linear regression fit of mean tumor volumes over time (NCI-H1975 xenografts): +6.4
